Experimental data published in patent publication US20250154455A1, “BIOACTIVE AND ANTIOXIDANT SUPRAMOLECULAR POLYMER HYDROGELS FOR NEURAL CELL CULTURE” (Northwestern University, priority 2023, published 2025).

Experiment: Hydrogen peroxide remaining in solutions of PA or PEDOT-S/OH
Details: hydrogen peroxide solution, after 3 days
Experimental: The presence of ROS was determined using CellROX Green Reagent (ThermoFisher). Briefly, CellROX was added to cells for a final concentration of 5 μM and incubated for 30 mins at 37° C. Wells were washed 3× with PBS and fluorescence intensity was read at 485/520 nm using Cyation3. For solution studies, CellROX was added to solutions of PEDOT or PA containing 10 μM H2O2 at various time points.

C16-A2G2E4GIKVAV [PA]
peroxide still present: ~75%
